The target in one test is T1, human CB2 receptor (Homo sapiens, UniProt P34972).
T1 construct: expressed in transfected cells; host or cells: SK-N-MC cells, stably transfected with pcDNA3 CB-2 (human); semi-purified membrane pellet
The experiment in a line: Cannabinoid CB2 receptor binding assay ([3H]-CP-55,940 displacement, SK-N-MC cell membranes). The following applies: 1.5 h; test concentration of 0.2 μM; radioligand CP-55,940 0.2 nM; read-out: Cannabinoid CB2 Receptor Binding, percent inhibition. On the procedure:
(§1) Binding Assay for CB1 or CB2 Agonists or Inverse Agonists
(§2) The human CB1 and CB2 receptors were stably expressed in SK-N-MC cells transfected with pcDNA3 CB-1 (human) or pcDNA3 CB-2 (human). The cells were grown in T-180 cell culture flasks under standard cell culture conditions at 37° C. in a 5% CO2 atmosphere. The cells were harvested by trysinization and homogenized in a homogenization buffer (10 mM Tris, 0.2 mM MgCl2, 5 mM KCl, with protease inhibitors aprotinin, leupeptin, pepstatin A and bacitracin) and centrifuged (2000 g). The supernatant was then centrifuged in 2M sucrose (31,300 g) to produce a semi-purified membrane pellet. The pellet was resuspended in homogenization and stored at −80° C.
(§3) On the day of the assay, the pellet was thawed on ice and diluted in assay buffer (50 mM Tris-HCl, 5 mM MgCl2, 2.5 mM EDTA, 0.5 mg/mL fatty acid free bovine serum albumin, pH 7.5). The diluted membrane pellet was added with buffer, either a test compound or vehicle standard and the radioligand […] (0.2 nM) to the wells of a 96-well polypropylene plate. Non-specific binding was measured in wells containing W1N 55,212 (10 uM). The plate was covered and incubated for 90 minutes at 30° C. The contents were then aspirated onto a Packard Unifilter GF/C filter bottom plate prewet with 0.5% polyethyleneimine. The wells of the polypropylene plate were rinsed and aspirated seven times with a 0.9% saline-0.5% Tween 20 solution. The Unifilter plate was dried, scintillation cocktail was added to each well and the counts representing binding were quantitated in a TopCount scintillation counter.
(§4) For compounds tested, an IC50 binding value was obtained from percent inhibition studies in which various test concentrations were used. The binding value was calculated by linear regression.
(§5) For compounds without an IC50 binding value, the percent inhibition (%) was obtained at a test concentration of 0.2 μM.

For another test, the target named is T2, human CB1 receptor (Homo sapiens, UniProt P21554).
T2 construct: expressed in transfected cells; host or cells: SK-N-MC cells, stably transfected with pcDNA3 CB-1 (human); semi-purified membrane pellet
The experiment in a line: Cannabinoid CB1 receptor binding assay ([3H]-CP-55,940 displacement, SK-N-MC cell membranes). The following applies: for inhibition at 0.2 µM: 1.5 h, read-out: Cannabinoid CB1 Receptor Binding, percent inhibition. On the procedure: as §1, §2, §3, §4, §5

As a reminder, the inhibition is the change of the read-out against control, counted positive when it falls. As a reminder, the IC50 is the midpoint of a concentration-inhibition curve.

T1 sequence (P34972 whole entry): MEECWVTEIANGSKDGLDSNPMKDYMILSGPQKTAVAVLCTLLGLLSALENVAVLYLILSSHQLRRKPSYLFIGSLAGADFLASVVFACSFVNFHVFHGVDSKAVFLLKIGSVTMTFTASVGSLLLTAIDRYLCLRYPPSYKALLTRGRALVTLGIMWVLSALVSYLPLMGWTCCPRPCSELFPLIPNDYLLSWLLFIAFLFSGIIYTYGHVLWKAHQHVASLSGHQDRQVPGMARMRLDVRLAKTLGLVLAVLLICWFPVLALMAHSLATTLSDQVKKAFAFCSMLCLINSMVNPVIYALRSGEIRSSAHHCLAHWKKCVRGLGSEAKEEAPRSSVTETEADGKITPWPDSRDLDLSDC
T2 sequence (P21554 whole entry): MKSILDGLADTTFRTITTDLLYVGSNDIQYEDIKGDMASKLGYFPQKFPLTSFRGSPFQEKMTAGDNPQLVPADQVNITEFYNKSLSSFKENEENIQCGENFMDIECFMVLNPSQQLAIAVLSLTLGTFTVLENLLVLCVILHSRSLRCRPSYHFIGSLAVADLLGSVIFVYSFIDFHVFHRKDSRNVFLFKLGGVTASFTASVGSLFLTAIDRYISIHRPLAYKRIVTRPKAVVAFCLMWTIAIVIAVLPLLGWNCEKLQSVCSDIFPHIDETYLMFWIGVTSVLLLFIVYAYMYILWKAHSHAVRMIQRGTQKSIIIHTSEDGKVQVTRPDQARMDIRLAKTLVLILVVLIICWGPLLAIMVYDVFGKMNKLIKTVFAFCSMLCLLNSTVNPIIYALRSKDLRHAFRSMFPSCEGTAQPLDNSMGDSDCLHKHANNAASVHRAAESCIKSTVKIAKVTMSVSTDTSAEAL

`Cc1c(C(=O)N[C@H](C)c2ccccc2)nn(-c2ccc(Cl)cc2Cl)c1-c1cc(Br)cs1` [Cpd 49, 5-(4-bromo-thiophen-2-yl)-1-(2,4-dichloro-phenyl)-4-methyl-1H-pyrazole-3-carboxylic acid [(1R)-1-phenyl-ethyl]-amide]: the inhibition at 0.2 µM turned out to be 63% on human CB2 receptor and 76% at human CB1 receptor.
As for `CCc1c(C(=O)N2CCC(O)CC2)nn(-c2ccc(Cl)cc2Cl)c1-c1ccc(Br)s1` [Cpd 50, [5-(5-bromo-thiophen-2-yl)-1-(2,4-dichloro-phenyl)-4-ethyl-1H-pyrazol-3-yl]-(4-hydroxy-piperidin-1-yl)-methanone], the inhibition at 0.2 µM on human CB2 receptor amounted to 17%; on human CB1 receptor, 28%.
In the same order, the values of `CCc1c(C(=O)NN2CCC(O)CC2)nn(-c2ccc(Cl)cc2Cl)c1-c1ccc(Br)s1` [Cpd 51, 5-(5-bromo-thiophen-2-yl)-1-(2,4-dichloro-phenyl)-4-ethyl-1H-pyrazole-3-carboxylic acid (4-hydroxy-piperidin-1-yl)-amide] are 13% and 63%.
For the compound `CCc1c(C(=O)N[N+]2(C)CCCCC2)nn(-c2ccc(Cl)cc2Cl)c1-c1ccc(Br)s1` [Cpd 52, 1-{[5-(5-bromo-thiophen-2-yl)-1-(2,4-dichloro-phenyl)-4-ethyl-1H-pyrazole-3-carbonyl]-amino}-1-methyl-piperidinium], the results for the inhibition at 0.2 µM at human CB2 receptor and on human CB1 receptor were 0% and 51%, respectively.
Regarding `Cc1ccc(-c2c(C)c(C(=O)NN3CCCCC3)nn2-c2ccc(Cl)cc2Cl)o1` [Cpd 53, 1-(2,4-dichloro-phenyl)-4-methyl-5-(5-methyl-furan-2-yl)-1H-pyrazole-3-carboxylic acid piperidin-1-ylamide], the inhibition at 0.2 µM was 21% on human CB2 receptor and 40% on human CB1 receptor.
As for `Cc1ccc(-c2c(C)c(C(=O)N[C@@H](C)c3ccccc3)nn2-c2ccc(Cl)cc2Cl)o1` [Cpd 54, 1-(2,4-dichloro-phenyl)-4-methyl-5-(5-methyl-furan-2-yl)-1H-pyrazole-3-carboxylic acid [(1S)-1-phenyl-ethyl]-amide], the inhibition at 0.2 µM on human CB2 receptor was 52%. Besides, on human CB1 receptor (from percent inhibition studies at various test concentrations, calculated by linear regression, radioligand CP-55,940 0.2 nM, read-out: Cannabinoid CB1 Receptor Binding, IC50 binding value), the IC50 was 0.14 µM.
For `Cc1ccc(-c2c(C)c(C(=O)N[C@H](C)c3ccccc3)nn2-c2ccc(Cl)cc2Cl)o1` [Cpd 55, 1-(2,4-dichloro-phenyl)-4-methyl-5-(5-methyl-furan-2-yl)-1H-pyrazole-3-carboxylic acid [(1R)-1-phenyl-ethyl]-amide], the inhibition at 0.2 µM on human CB2 receptor was determined as 30%; at human CB1 receptor it was 58%.
In the same order, the values of `Cc1ccc(-c2c(C)c(C(=O)N[C@H](C)c3ccccn3)nn2-c2ccc(Cl)cc2Cl)o1` [Cpd 56, 1-(2,4-dichloro-phenyl)-4-methyl-5-(5-methyl-furan-2-yl)-1H-pyrazole-3-carboxylic acid [(1R)-1-pyridin-2-yl-ethyl]-amide] are 26% and 41%.
As to `Cc1ccc(-c2c(C)c(C(=O)N[C@H](C)C3CCCCC3)nn2-c2ccc(Cl)cc2Cl)o1` [Cpd 57, 1-(2,4-dichloro-phenyl)-4-methyl-5-(5-methyl-furan-2-yl)-1H-pyrazole-3-carboxylic acid [(1R)-1-cyclohexyl-ethyl]-amide], the inhibition at 0.2 µM came to 28% on human CB2 receptor and 46% at human CB1 receptor.

The values are drawn from US20070117858A1, “SUBSTITUTED 5-HETEROARYL-1-PHENYL-PYRAZOLE CANNABINOID MODULATORS” (priority 2005, published 2007).
